What was measured:
LRRK2 = experiment: In vitro autoradiography, NHP brain slices; assay type: binding; settings: baseline
Description: Whole brain hemispheres were sectioned into horizontal slices with a thickness of 100 µm using a Leica cryomacrocut system. The autoradiographic procedures followed the same protocols established in previous studies conducted in our laboratory. The whole-hemisphere sections of 100 micron thickness were incubated for 90 min at room temperature with their corresponding radiotracer (4 MBq/200 mL) in TRIS buffer (pH 7.4) containing sodium chloride (120 mM), potassium chloride (5 mM), calcium chloride (2 mM), and albumin (0.1% w/v). After incubation, sections were washed three times in the same buffer at room temperature for five minutes each, briefly dipped in ice-cold distilled water, dried, and then placed in the phosphor imaging plates. Binding density standards were prepared by serial dilution of the radioligand stock solution in the assay buffer. Readings were taken with the Fujifilm BAS-5000 (Fujifilm, Tokyo, Japan), while quantitative analysis was conducted with the Multi Gauge 3.2 image analysis software (Fujifilm, Tokyo, Japan). For blocking experiments, adjacent brain sections were co-incubated with LuAF66583 (0.1 µM or 10 µM). […] The thickness differed from human tissue (20 µm).

cynomolgus monkey brain = experiment: In vivo PET imaging in cynomolgus monkeys; parameters: VT/fp: unit not given beside the values; VT: unit not given here
Description: PET measurements were led using a high-resolution research tomograph (HRRT) from Siemens Molecular Imaging (Knoxville, TN, USA). List mode data were reconstructed using the ordinary Poisson-3D-ordered subset expectation maximization (OP-3D-OSEM) algorithm, with 10 repetitions and 16 subsets while modeling the point spread function (PSF). The in-plane resolution accomplished with OP-3D-OSEM and PSF was 1.5 mm full width at half maximum (FWHM) at the center of the field of view (FOV) and 2.4 mm at 10 cm off-center.
The study was approved by the Animal Ethics Committee of the Swedish Animal Welfare Agency and was performed according to “Guidelines for planning, conducting and documenting experimental research” (Dnr 5.2.18-4170/14 issued on 11 April 2014) of the KI as well as the “Guide for the Care and Use of Laboratory Animals” [26]. NHPs were supplied by the Astrid Fagraeus Laboratory (AFL) of the Swedish Institute for Infectious Disease Control (SMI), Solna, Sweden. Anesthesia was brought by intramuscular injection of ketamine hydrochloride (approximately 10 mg/kg) at AFL and continued with a mixture of sevoflurane (0–8.0%), oxygen, and medical air through endotracheal intubation at the KI PET center. The NHP head was immobilized using a homemade fixation device. Body temperature was maintained with a Bair Hugger model 505 (Arizant Healthcare, Eden Prairie, MN, USA) and monitored via an esophageal thermometer. ECG, heart rate, respiratory rate, blood pressure, and oxygen saturation were continuously examined throughout the experiments. The fluid balance was retained with continuous infusion of saline.
A 6 min transmission scan was performed before the injection of the radioligand using a single Cs-137 source. List mode data was acquired continuously for 93 min following intravenous administration of the radioligand. Images were reconstructed into 38 frames with varying intervals: […].
For all PET measurements, radioligands were administered via intravenous injection. Regions of interest (ROIs) were manually delineated on MRI images for each NHP, for the whole brain, cerebellum, caudate, putamen, thalamus, frontal cortex, temporal cortex, amygdala, posterior cingulate cortex, anterior cingulate cortex, hippocampus, occipital cortex, parietal cortex, ventral striatum, and insula. The summed PET images over the entire duration were co-registered with the individual NHP’s MRI image. After applying the co-registration parameters to the dynamic PET data, time–activity curves were generated for each brain region for every PET measurement. The standardized uptake value (SUV) was calculated for each brain region. The total distribution volume (VT) for all three radioligands were derived using one-tissue compartment (1-TC) and two-tissue compartment (2-TC) models.
On two separate occasions, PET measurements were performed after intravenous administration of GEN-7915 or PFE-360 with a slow infusion in one NHP (NHP2). The infusion lasted for 2 min, starting 30 min before PET scanning. The pretreatment formulations were prepared by dissolving it in DMSO (5%), Kolliphor EL (15%), and PBS (80%), and the pH of the final formulation was approximately 4.5–5.0. An automated blood sampling system (ABSS) measured continuous radioactivity for the first 3 min following the radioligand injection, while manual blood samples were taken at 4, 15, 30, 60, and 90 min post-injection to measure the radioactivity and metabolism.

[1] = ACC, 1-TC model, pretreatment GEN-7915 (40 mg/kg)
[2] = ACC, 1-TC model, pretreatment PFE-360 (0.5 mg/kg)
[3] = ACC, 2-TC model, pretreatment GEN-7915 (40 mg/kg)
[4] = ACC, 2-TC model, pretreatment PFE-360 (0.5 mg/kg)
[5] = AMY, 1-TC model, pretreatment GEN-7915 (40 mg/kg)
[6] = AMY, 1-TC model, pretreatment PFE-360 (0.5 mg/kg)
[7] = AMY, 2-TC model, pretreatment GEN-7915 (40 mg/kg)
[8] = AMY, 2-TC model, pretreatment PFE-360 (0.5 mg/kg)
[9] = CAU, 1-TC model, pretreatment GEN-7915 (40 mg/kg)
[10] = CAU, 1-TC model, pretreatment PFE-360 (0.5 mg/kg)
[11] = CAU, 2-TC model, pretreatment GEN-7915 (40 mg/kg)
[12] = CAU, 2-TC model, pretreatment PFE-360 (0.5 mg/kg)
[13] = CB, 1-TC model, pretreatment GEN-7915 (40 mg/kg)
[14] = CB, 1-TC model, pretreatment PFE-360 (0.5 mg/kg)
[15] = CB, 2-TC model, pretreatment GEN-7915 (40 mg/kg)
[16] = CB, 2-TC model, pretreatment PFE-360 (0.5 mg/kg)
[17] = FC, 1-TC model, pretreatment GEN-7915 (40 mg/kg)
[18] = FC, 1-TC model, pretreatment PFE-360 (0.5 mg/kg)
[19] = FC, 2-TC model, pretreatment GEN-7915 (40 mg/kg)
[20] = FC, 2-TC model, pretreatment PFE-360 (0.5 mg/kg)
[21] = PUT, 1-TC model, pretreatment GEN-7915 (40 mg/kg)
[22] = PUT, 1-TC model, pretreatment PFE-360 (0.5 mg/kg)
[23] = PUT, 2-TC model, pretreatment GEN-7915 (40 mg/kg)
[24] = PUT, 2-TC model, pretreatment PFE-360 (0.5 mg/kg)
[25] = THA, 1-TC model, pretreatment GEN-7915 (40 mg/kg)
[26] = THA, 1-TC model, pretreatment PFE-360 (0.5 mg/kg)
[27] = THA, 2-TC model, pretreatment GEN-7915 (40 mg/kg)
[28] = THA, 2-TC model, pretreatment PFE-360 (0.5 mg/kg)

**Q.** What does the source list for `C[C@@H]1C[C@@H]([18F])CN1c1c(C#N)c2c(N)nccc2n1C` [[^18F]1, 4-Amino-2-((2R,4R)-4-[^18F]fluoro-2-methylpyrrolidin-1-yl)-1-methyl-1H-pyrrolo[3,2-c]pyridine-3-carbonitrile]?
**A.** Binding of radioligand in brain slices (ARG) (LRRK2): clear binding; VT (cynomolgus monkey brain; ACC, 1-TC model, Baseline): 6.03; VT/fp (cynomolgus monkey brain; ACC, 1-TC model, Baseline): 17.7; VT (cynomolgus monkey brain; [1]): 8.50; VT/fp (cynomolgus monkey brain; [1]): 20.9; VT (cynomolgus monkey brain; [2]): 9.28; VT/fp (cynomolgus monkey brain; [2]): 20.2; VT (cynomolgus monkey brain; ACC, 2-TC model, Baseline): 6.04; VT (cynomolgus monkey brain; [3]): 8.71; VT/fp (cynomolgus monkey brain; [3]): 21.4; VT (cynomolgus monkey brain; [4]): 9.39; VT/fp (cynomolgus monkey brain; [4]): 20.4; VT (cynomolgus monkey brain; AMY, 1-TC model, Baseline): 6.15; VT/fp (cynomolgus monkey brain; AMY, 1-TC model, Baseline): 18.1; VT (cynomolgus monkey brain; [5]): 7.29; VT/fp (cynomolgus monkey brain; [5]): 17.9; VT (cynomolgus monkey brain; [6]): 7.56; VT/fp (cynomolgus monkey brain; [6]): 16.4; VT (cynomolgus monkey brain; AMY, 2-TC model, Baseline): 6.23; VT/fp (cynomolgus monkey brain; AMY, 2-TC model, Baseline): 18.3; VT (cynomolgus monkey brain; [7]): 7.36; VT/fp (cynomolgus monkey brain; [7]): 18.1; VT (cynomolgus monkey brain; [8]): 7.78; VT/fp (cynomolgus monkey brain; [8]): 16.9; VT (cynomolgus monkey brain; CAU, 1-TC model, Baseline): 5.83; VT/fp (cynomolgus monkey brain; CAU, 1-TC model, Baseline): 17.2; VT (cynomolgus monkey brain; [9]): 7.78; VT/fp (cynomolgus monkey brain; [9]): 19.1; VT (cynomolgus monkey brain; [10]): 8.50; VT/fp (cynomolgus monkey brain; [10]): 18.5; VT (cynomolgus monkey brain; CAU, 2-TC model, Baseline): 5.87; VT/fp (cynomolgus monkey brain; CAU, 2-TC model, Baseline): 17.3; VT (cynomolgus monkey brain; [11]): 7.89; VT/fp (cynomolgus monkey brain; [11]): 19.4; VT (cynomolgus monkey brain; [12]): 8.50; VT/fp (cynomolgus monkey brain; [12]): 18.5; VT (cynomolgus monkey brain; CB, 1-TC model, Baseline): 4.13; VT/fp (cynomolgus monkey brain; CB, 1-TC model, Baseline): 12.2; VT (cynomolgus monkey brain; [13]): 5.03; VT/fp (cynomolgus monkey brain; [13]): 12.3; VT (cynomolgus monkey brain; [14]): 5.67; VT/fp (cynomolgus monkey brain; [14]): 12.3; VT (cynomolgus monkey brain; CB, 2-TC model, Baseline): 4.41; VT/fp (cynomolgus monkey brain; CB, 2-TC model, Baseline): 13.0; VT (cynomolgus monkey brain; [15]): 5.08; VT/fp (cynomolgus monkey brain; [15]): 12.5; VT (cynomolgus monkey brain; [16]): 5.69; VT/fp (cynomolgus monkey brain; [16]): 12.4; VT (cynomolgus monkey brain; FC, 1-TC model, Baseline): 5.26; VT/fp (cynomolgus monkey brain; FC, 1-TC model, Baseline): 15.5; VT (cynomolgus monkey brain; [17]): 6.53; VT/fp (cynomolgus monkey brain; [17]): 16.0; VT (cynomolgus monkey brain; [18]): 7.68; VT/fp (cynomolgus monkey brain; [18]): 16.7; VT (cynomolgus monkey brain; FC, 2-TC model, Baseline): 5.26; VT/fp (cynomolgus monkey brain; FC, 2-TC model, Baseline): 15.5; VT (cynomolgus monkey brain; [19]): 6.74; VT/fp (cynomolgus monkey brain; [19]): 16.5; VT (cynomolgus monkey brain; [20]): 7.72; VT/fp (cynomolgus monkey brain; [20]): 16.8; Brain uptake (cynomolgus monkey brain; PET, iv, baseline): > 3 %ID; Brain washout (cynomolgus monkey brain; PET, iv, baseline): rapid washout; Regional distribution of brain uptake (cynomolgus monkey brain; PET, iv, baseline): regional differences in uptake; VT (cynomolgus monkey brain; PUT, 1-TC model, Baseline): 5.71; VT/fp (cynomolgus monkey brain; PUT, 1-TC model, Baseline): 16.8; VT (cynomolgus monkey brain; [21]): 7.56; VT/fp (cynomolgus monkey brain; [21]): 18.6; VT (cynomolgus monkey brain; [22]): 8.25; VT/fp (cynomolgus monkey brain; [22]): 17.9; VT (cynomolgus monkey brain; PUT, 2-TC model, Baseline): 5.89; VT/fp (cynomolgus monkey brain; PUT, 2-TC model, Baseline): 17.3; VT (cynomolgus monkey brain; [23]): 7.71; VT/fp (cynomolgus monkey brain; [23]): 18.9; VT (cynomolgus monkey brain; [24]): 8.25; VT/fp (cynomolgus monkey brain; [24]): 17.9; VT (cynomolgus monkey brain; THA, 1-TC model, Baseline): 4.80; VT/fp (cynomolgus monkey brain; THA, 1-TC model, Baseline): 14.1; VT (cynomolgus monkey brain; [25]): 6.05; VT/fp (cynomolgus monkey brain; [25]): 14.9; VT (cynomolgus monkey brain; [26]): 6.68; VT/fp (cynomolgus monkey brain; [26]): 14.5; VT (cynomolgus monkey brain; THA, 2-TC model, Baseline): 4.95; VT/fp (cynomolgus monkey brain; THA, 2-TC model, Baseline): 14.6; VT (cynomolgus monkey brain; [27]): 6.18; VT/fp (cynomolgus monkey brain; [27]): 15.2; VT (cynomolgus monkey brain; [28]): 6.68; VT/fp (cynomolgus monkey brain; [28]): 14.5

**Q.** Which results are given for `C[C@@H]1C[C@@H]([18F])CN1c1c(C#N)c2c(N)ncnc2n1C` [[^18F]2, 4-Amino-6-((2R,4R)-4-[^18F]fluoro-2-methyl Pyrrolidin-1-yl)-7-methyl-7H-pyrrolo[2,3-d]pyrimidine-5-carbonitrile]?
**A.** Binding of radioligand in brain slices (ARG) (LRRK2): displayed binding; Brain uptake at peak (cynomolgus monkey brain; PET, iv, baseline): 3.8–4.4 %ID; Brain washout (cynomolgus monkey brain; PET, iv, baseline): fast washout; Regional distribution of brain uptake (cynomolgus monkey brain; PET, iv, baseline): relatively uniform distribution across all the brain regions; Time to reach half the peak brain level (cynomolgus monkey brain; PET, iv, baseline): ≤ 20 min

From paper PMC12735872, “Development of ^18F/^11C-Labeled Pyrrolo-Pyridine/Pyrimidine LRRK2 Selective PET Radioligands” (Pharmaceuticals, 2025)
